Literature values as cited in patent US20200113856A1, “NON-PRESCRIPTION MOTION SICKNESS MEDICATION CONTAINING AN ANALGESIC, AN H2 BLOCKER, AND AT LEAST ONE ANTACID” (priority 2018, published 2020).
Each block holds one compound with its values, some of them ahead of it.

Assays:
risk of stroke = settings: in vivo
platelet thromboxane = settings: high-dose, throughout the dosing interval
motion sickness = settings: patch worn behind the ear
blood pressure = settings: several types of rat models susceptible to salt-sensitive hypertension, in contrast with sodium chloride
histamine H2 receptors = histamine H2 receptors (Homo sapiens, UniProt P25021); settings: equimolar basis
reflux esophagitis = settings: patients with reflux esophagitis

Chain of histamine H2 receptors (P25021 whole entry): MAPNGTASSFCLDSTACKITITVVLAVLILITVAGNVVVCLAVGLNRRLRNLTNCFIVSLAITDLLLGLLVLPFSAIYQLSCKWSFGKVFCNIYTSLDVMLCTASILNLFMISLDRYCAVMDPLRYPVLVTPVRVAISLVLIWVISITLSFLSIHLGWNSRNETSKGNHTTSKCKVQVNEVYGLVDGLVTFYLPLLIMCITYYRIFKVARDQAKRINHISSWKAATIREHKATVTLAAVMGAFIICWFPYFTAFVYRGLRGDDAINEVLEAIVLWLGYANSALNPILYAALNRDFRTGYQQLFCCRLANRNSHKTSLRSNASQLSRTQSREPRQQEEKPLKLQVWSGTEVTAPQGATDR

SMILES: CC(=O)Nc1ccc(O)cc1 [Acetaminophen]
duration of effects (pain or fever; in vivo): between two and four hours

SMILES: CC(=O)Oc1ccccc1C(=O)O [Aspirin, acetylsalicylic acid]
time until effects begin (pain or fever; for pain or fever): ≤ 30 min

SMILES: COc1ccc2cc([C@H](C)C(=O)O)ccc2c1 [Naproxen]
associated risk of stroke compared with ibuprofen (risk of stroke): roughly 50% | suppression of platelet thromboxane (platelet thromboxane): near-complete suppression

SMILES: CN1[C@@H]2C[C@@H](OC(=O)[C@H](CO)c3ccccc3)C[C@H]1[C@@H]1O[C@@H]12 [Scopolamine]
duration of effectiveness of patch (motion sickness): three days

SMILES: O=C([O-])O.[Na+] [Sodium bicarbonate, sodium hydrogen carbonate]
effect on blood pressure (blood pressure): no effect

times more potent than cimetidine (histamine H2 receptors): ~20 times | times more potent than nizatidine (histamine H2 receptors): approximately 7.5 times | times more potent than ranitidine (histamine H2 receptors): approximately 7.5 times
SMILES: NC(N)=Nc1nc(CSCCC(N)=NS(N)(=O)=O)cs1 [famotidine]

SMILES: CNC(=C[N+](=O)[O-])NCCSCc1csc(CN(C)C)n1 [nizatidine]
effectiveness as maintenance therapy versus famotidine (reflux esophagitis): more effective H2RA than famotidine
